Consider 5 molecules from patent US5278326A, “Substituted beta-ketoamide ACAT inhibitors” (Warner-Lambert Company, priority 1991, dated 1994).

Some results are limits rather than exact numbers.

The target of the assay is T1, acyl-CoA: cholesterol acyltransferase (ACAT) (Oryctolagus cuniculus, UniProt G1SFD9).
T1 construct: in a tissue preparation containing rabbit intestinal microsomes; from tissue; host or cells: rabbit intestinal microsomes
T1 sequence (G1SFD9 1-524): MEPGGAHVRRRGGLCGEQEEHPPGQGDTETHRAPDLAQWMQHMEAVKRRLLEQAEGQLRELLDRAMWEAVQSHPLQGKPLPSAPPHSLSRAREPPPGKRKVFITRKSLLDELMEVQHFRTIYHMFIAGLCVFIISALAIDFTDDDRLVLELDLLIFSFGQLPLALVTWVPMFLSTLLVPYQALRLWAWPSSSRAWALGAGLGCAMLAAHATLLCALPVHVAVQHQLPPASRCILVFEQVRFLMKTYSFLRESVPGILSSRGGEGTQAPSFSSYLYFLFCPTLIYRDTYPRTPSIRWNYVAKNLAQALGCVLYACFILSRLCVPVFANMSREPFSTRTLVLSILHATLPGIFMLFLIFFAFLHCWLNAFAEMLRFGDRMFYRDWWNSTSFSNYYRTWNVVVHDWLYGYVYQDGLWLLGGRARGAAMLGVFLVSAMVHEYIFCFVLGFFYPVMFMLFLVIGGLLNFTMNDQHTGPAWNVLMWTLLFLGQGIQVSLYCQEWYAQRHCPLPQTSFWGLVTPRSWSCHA
In words: in vitro inhibition of ACAT (radiolabeled cholesterol oleate formed from radiolabeled oleic acid, rabbit intestinal microsomes). It counts as biochemical. As to conditions: tissue preparation containing rabbit intestinal microsomes, read-out: IC50 (concentration of test compound required to inhibit the activity of the enzyme by 50%). As to the method: The ability of representative compounds of the present invention to inhibit ACAT was measured using an in vitro test more fully described in F. J. Field and R. G. Salone, Biochemica et Biophysica 712:557-570 (1982). The test assesses the ability of a test compound to inhibit the acylation of cholesterol by oleic acid by measuring the amount of radiolabeled cholesterol oleate formed from radiolabeled oleic acid in a tissue preparation containing rabbit intestinal microsomes.
The data appear in Table 1 where they are expressed as IC50 values; i.e., the concentration of test compound required to inhibit the activity of the enzyme by 50%.
As for `CC(C)c1cccc(C(C)C)c1NC(=O)CC(=O)CCCCCCCCCCCOC1CCCCO1` (centres unmarked) [Example 6, N-[2,6-bis(1-methylethyl)phenyl]-3-oxo-14-[(tetrahydro-2H-pyran-2-yl)oxy]-tetradecanamide], the IC50 was determined as 57 nM. On to `CC(C)c1cccc(C(C)C)c1NC(=O)CC(=O)CCCCCCCCCCCO` [Example 7, N-[2,6-bis(1-methylethyl)phenyl]-14-hydroxy-3-oxo-tetradecanamide], for which the IC50 is 230 nM. For `CCCCCCCCCCCC(=O)C(C)(C)C(=O)N(C)c1c(OC)cc(OC)cc1OC` [Example 10, N,2,2-trimethyl-3-oxo-N-(2,4,6-trimethoxyphenyl)-tetradecanamide], the IC50 is over 1000 nM. Consider `CCCCCCCCNC(=O)CC(=O)c1ccc(F)cc1F` [Example 12, 2,4-difluoro-N-octyl-β-oxo-benzenepropanamide], for which the IC50 is over 1000 nM.

As to `CCCCCCCCNC(=O)CC(=O)c1c2ccccc2cc2ccccc12` [Example 13, N-octyl-β-oxo-9-anthracenepropanamide], the IC50 was over 1000 nM.
